Among the data in ChEMBL document CHEMBL1156062, “Synthesis, SAR, and X-ray structure of tricyclic compounds as potent FBPase inhibitors” (Bioorg Med Chem Lett, 2009) are IC50 values, retold here.

This assay deals with T1, Fructose-1,6-bisphosphatase 1 (Homo sapiens, UniProt P09467).
T1 sequence (P09467 whole entry): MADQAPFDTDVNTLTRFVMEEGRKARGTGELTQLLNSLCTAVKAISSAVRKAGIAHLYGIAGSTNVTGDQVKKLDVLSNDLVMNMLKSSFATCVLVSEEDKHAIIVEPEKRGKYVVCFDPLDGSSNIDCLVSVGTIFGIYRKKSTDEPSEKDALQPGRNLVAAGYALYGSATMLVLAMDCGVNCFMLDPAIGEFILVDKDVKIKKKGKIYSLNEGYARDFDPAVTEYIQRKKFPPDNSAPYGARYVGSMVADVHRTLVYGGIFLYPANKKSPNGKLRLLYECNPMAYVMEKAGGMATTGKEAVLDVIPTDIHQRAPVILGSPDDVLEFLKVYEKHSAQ
Put plainly: Inhibition of human liver FBPase.

In turn, `Nc1nc2c(s1)Cc1ccc(P(=O)(O)O)cc1-2` returned an IC50 of 18.7 µM.
In the case of `Nc1nc2c(s1)CCc1cc(OP(=O)(O)O)ccc1-2`, half-maximal inhibition (IC50) required 112 µM.
Consider `Nc1nc2c(s1)CCCc1ccc(P(=O)(O)O)cc1-2`, for which half-maximal inhibition (IC50) was put at 0.169 µM. Against the preceding compound, the IC50 is about 660-fold lower.
For `Nc1nc2c(s1)Cc1cc(OP(=O)(O)O)ccc1-2`, the IC50 was 146 µM. This IC50 lies about 860-fold higher than the previous one.
Compound `Nc1nc2c(s1)CCc1ccc(CP(=O)(O)O)cc1-2` had an IC50 of 0.84 µM.
`Nc1nc2c(s1)Cc1cc(OCP(=O)(O)O)ccc1-2` showed an IC50 of 112 µM.
The result for `Nc1nc2c(s1)CCc1cccc(OCP(=O)(O)O)c1-2` reads 21.5 µM; that for `Nc1nc2c(s1)CCc1cc(P(=O)(O)O)ccc1-2`, 354 µM; that for `Nc1nc2c(s1)CCc1ccc(P(=O)(O)O)cc1-2`, 9.32 µM.
The same measure for `Nc1nc2c(s1)CCc1cc(OCP(=O)(O)O)ccc1-2`: 16.4 µM.
The compound `Nc1nc2c(s1)Cc1cc(P(=O)(O)O)ccc1-2` yielded an IC50 of 91.9 µM.
`Nc1nc2c(s1)CCc1ccc(C(F)(F)P(=O)(O)O)cc1-2` registered an IC50 of 0.047 µM.
The same measure for `Nc1nc2c(s1)Cc1ccc(OP(=O)(O)O)cc1-2`: 307 µM.
For the compound `Nc1nc2c(s1)CCCc1ccc(OP(=O)(O)O)cc1-2`, half-maximal inhibition (IC50) required 0.022 µM.
The result for `Nc1nc2c(s1)Cc1cccc(P(=O)(O)O)c1-2` reads 28.4 µM; that for `Nc1nc2c(s1)CCc1cccc(OP(=O)(O)O)c1-2`, 335 µM.
The compound `Nc1nc2c(s1)CCc1ccc(OCP(=O)(O)O)cc1-2` registered an IC50 of 19.1 µM.
The result for `Nc1nc2c(s1)Cc1ccc(OCP(=O)(O)O)cc1-2` reads 112 µM.
For the compound `Nc1nc2c(s1)CCc1cccc(P(=O)(O)O)c1-2`, the IC50 is 354 µM.
Turning to `Nc1nc2c(s1)Cc1cccc(OP(=O)(O)O)c1-2`, inhibition was half-maximal at 0.07 µM (IC50).
The result for `Nc1nc2c(s1)CCCc1ccc(OCP(=O)(O)O)cc1-2` reads 41.7 µM.
